# pIC50: −log10 of the molar value. Activity calls are given as the source filed them. No cut-off for these calls is given here.
# Assays:
# MDA-MB-231 = assay: Growth inhibition of human MDA-MB-231 cells; type: functional
# U-251 = assay: Growth inhibition of human U251 cells; type: functional
# SF-268 = assay: Growth inhibition of human SF268 cells; type: functional
# SF-295 = assay: Growth inhibition of human SF295 cells; type: functional
# SNB-75 = assay: Growth inhibition of human SNB75 cells; type: functional
# SNB-78 = assay: Growth inhibition of human SNB78 cells; type: functional
# HCC 2998 = assay: Growth inhibition of human HCC2998 cells; type: functional
# KM12 = assay: Growth inhibition of human KM12 cells; type: functional
# HT-29 = assay: Growth inhibition of human HT-29 cells; type: functional
# HCT-15 = assay: Growth inhibition of human HCT15 cells; type: functional
# NCI-H23 = assay: Growth inhibition of human NCI-H23 cells; type: functional
# NCI-H226 = assay: Growth inhibition of human NCI-H226 cells; type: functional
# NCI-H522 = assay: Growth inhibition of human NCI-H522 cells; type: functional
# NCI-H460 = assay: Growth inhibition of human NCI-H460 cells; type: functional
# DMS-114 = assay: Growth inhibition of human DMS114 cells; type: functional
# LOX IMVI [1] = assay: Growth inhibition of human LOXIMVI cells; type: functional
# OVCAR-3 = assay: Growth inhibition of human OVCAR3 cells; type: functional
# OVCAR-4 = assay: Growth inhibition of human OVCAR4 cells; type: functional
# OVCAR-5 = assay: Growth inhibition of human OVCAR5 cells; type: functional
# MKN-7 = assay: Growth inhibition of human MKN7 cells; type: functional
# MKN-74 = assay: Growth inhibition of human MKN74 cells; type: functional
# LOX IMVI [2] = assay: Antitumor activity against human LOXIMVI cells xenografted in nude mouse assessed as decrease in tumor volume at 25 mg/kg, iv administered on day 1, 6 and 11 post tumor inoculation measured on day 21; type: functional; set-up: scale not given: the % may be the effect or the level left
# Mus musculus = assay: Toxicity in nude mouse bearing human LOXIMVI cells assessed as change in body weight at 25 mg/kg, iv administered on day 1, 6 and 11; type: organism-based, LOX IMVI; set-up: dose 25 mg/kg, route intravenous; settings: in vivo
# Saccharomyces cerevisiae [3] = assay: Growth restoration activity in cdc2-1 rad9-deficient Saccharomyces cerevisiae assessed as growth zone incubated at 37 degC for 6 hrs and 28 degC for 2 days; type: functional, organism-based
# DU-145 = assay: Growth inhibition of human DU145 cells; type: functional
# PC-3 = assay: Growth inhibition of human PC3 cells; type: functional
# Saccharomyces cerevisiae [4] = assay: Growth restoration activity in cdc2-1 rad9-deficient Saccharomyces cerevisiae assessed as growth zone incubated at 37 degC for 6 hrs and 28 degC for 2 days relative to mycophenolic acid; type: functional
# K562 = assay: Cytotoxicity against human K562 cells after 4 days by MTT assay; type: functional, cell-based; settings: K562, 96 h
# Saccharomyces cerevisiae [5] = assay: Growth restoration activity in cdc2-1 rad9-deficient Saccharomyces cerevisiae assessed as growth zone at 4 ug/disc incubated at 37 degC for 6 hrs and 28 degC for 2 days; type: functional
# Saccharomyces cerevisiae [6] = assay: Growth restoration activity in cdc2-1 rad9-deficient Saccharomyces cerevisiae assessed as growth zone at 2 ug/disc incubated at 37 degC for 6 hrs and 28 degC for 2 days; type: functional
# Saccharomyces cerevisiae [7] = assay: Growth restoration activity in cdc2-1 rad9-deficient Saccharomyces cerevisiae assessed as growth zone at 1 ug/disc incubated at 37 degC for 6 hrs and 28 degC for 2 days; type: functional
# Saccharomyces cerevisiae [8] = assay: Growth restoration activity in cdc2-1 rad9-deficient Saccharomyces cerevisiae assessed as growth zone at 0.5 ug/disc incubated at 37 degC for 6 hrs and 28 degC for 2 days; type: functional
# HL-60 [9] = assay: Induction of apoptosis in human HL60 cells assessed as DNA fragmentation after 24 hrs by Hoechst staining-based microscopic analysis; type: functional, cell-based
# HL-60 [10] = assay: Induction of apoptosis in human HL60 cells assessed as DNA fragmentation at 1.25 to 40 uM by Hoechst staining-based microscopic analysis; type: functional, cell-based; settings: TDE = time-dependent effect
# HL-60 [11] = assay: Induction of apoptosis in human HL60 cells assessed as caspase 8 activation at 20 uM after 3 hrs by spectrophotometric analysis; type: functional, cell-based
# HL-60 [12] = assay: Induction of apoptosis in human HL60 cells assessed as caspase 3/7 activation after 1 to 6 hrs by spectrophotometric analysis; type: functional, cell-based
# HL-60 [13] = assay: Induction of apoptosis in human HL60 cells assessed as caspase 8 activation after 1 to 6 hrs by spectrophotometric analysis; type: functional, cell-based
# HL-60 [14] = assay: Induction of apoptosis in human HL60 cells assessed as caspase 9 activation after 1 to 6 hrs by spectrophotometric analysis; type: functional, cell-based
# HL-60 [15] = assay: Induction of apoptosis in human HL60 cells assessed as DNA fragmentation after 24 hrs by Hoechst staining-based microscopic analysis preincubated with 20 uM p38 MAPK inhibitor SB203580; type: functional, cell-based
# HL-60 [16] = assay: Induction of apoptosis in human HL60 cells assessed as DNA fragmentation after 24 hrs by Hoechst staining-based microscopic analysis preincubated with 5 uM JNK inhibitor SP600125; type: functional, cell-based
# [17] = target: T1, MAP kinase p38 (Homo sapiens) (UniProt O15264+Q15759+Q16539+P53778); assay: Induction of p38 MAPK phosphorylation at T180/Y182 in human HL60 cells at 5 uM after 6 hrs by Western blot analysis; type: cell-based; settings: HL-60
# [18] = target: T1, MAP kinase p38 (Homo sapiens); assay: Induction of p38 MAPK phosphorylation at T180/Y182 in human HL60 cells at 10 uM after 3 hrs by Western blot analysis; type: cell-based; settings: HL-60
# HL-60 [19] = assay: Cytotoxicity against human HL60 cells after 48 hrs by MTT assay in absence of DFOM; type: functional, cell-based; settings: HL-60, 48 h
# HL-60 [20] = assay: Ratio of IC50 for human HL60 cells in presence of DFOM to IC50 for human HL60 cells in absence of DFOM; type: functional
# HL-60 [21] = assay: Cytotoxicity against human HL60 cells assessed as cell viability at 2 uM by MTT assay; type: functional; settings: read-out: Activity
# HL-60 [22] = assay: Induction of ROS generation in human HL60 cells at 10 uM measured immediately by spectrofluorometric analysis; type: functional, cell-based
# HL-60 [23] = assay: Induction of ROS generation in human HL60 cells at 10 uM after 3 hrs by spectrofluorometric analysis; type: functional, cell-based
# [24] = Induction of ROS generation at 10 uM after 3 hrs by spectrofluorometric analysis in presence of FeSO4; type: physicochemical
# HL-60 [25] = assay: Induction of apoptosis in human HL60 cells assessed as DNA fragmentation after 24 hrs by Hoechst staining-based microscopic analysis in presence of 100 uM free radical scavenger vitamin E; type: functional, cell-based
# HL-60 [26] = assay: Induction of apoptosis in human HL60 cells assessed as DNA fragmentation after 24 hrs by Hoechst staining-based microscopic analysis in presence of 50 uM superoxide scavenger allopurinol; type: functional, cell-based
# HL-60 [27] = assay: Induction of apoptosis in human HL60 cells assessed as DNA fragmentation after 24 hrs by Hoechst staining-based microscopic analysis in presence of 10 mM hydrogen peroxide scavenger NAC; type: functional, cell-based
# [28] = Growth inhibition of human HBC4 cells; type: functional
# [29] = Growth inhibition of human BSY1 cells; type: functional; settings: BSY-1
# [30] = Growth inhibition of human HBC5 cells; type: functional
structure (smiles),measurement,setting,value
CC(C)=CCCC(C)C12C=CC(C)(CC1)OO2 (centres undefined),GI50,MDA-MB-231,11700 nM
same,GI50,U-251,5010 nM
same,GI50,SF-268,7080 nM
same,GI50,SF-295,1660 nM
same,GI50,SNB-75,1320 nM
same,GI50,SNB-78,1550 nM
same,GI50,HCC 2998,4680 nM
same,GI50,KM12,1860 nM
same,GI50,HT-29,178 nM
same,GI50,HCT-15,4900 nM
same,GI50,NCI-H23,1700 nM
same,GI50,NCI-H226,3890 nM
same,GI50,NCI-H522,200 nM
same,GI50,NCI-H460,832 nM
same,GI50,DMS-114,10700 nM
same,GI50,LOX IMVI [1],214 nM
same,GI50,OVCAR-3,1740 nM
same,GI50,OVCAR-4,1820 nM
same,GI50,OVCAR-5,12000 nM
same,GI50,MKN-7,3630 nM
same,GI50,MKN-74,1170 nM
same,Activity,LOX IMVI [2],26.9%
same,Activity,Mus musculus,Non-toxic
same,Activity,Saccharomyces cerevisiae [3],Dose-dependent effect
same,GI50,DU-145,2630 nM
same,GI50,PC-3,1820 nM
same,fold change (FC),Saccharomyces cerevisiae [4],50
same,pIC50,K562,5.04
same,Activity,Saccharomyces cerevisiae [5],29 mm
same,Activity,Saccharomyces cerevisiae [6],24.1 mm
same,Activity,Saccharomyces cerevisiae [7],19 mm
same,Activity,Saccharomyces cerevisiae [8],0 mm
same,Activity,HL-60 [9],Dose-dependent effect
same,Activity,HL-60 [10],tde
same,Activity,HL-60 [11],Active
same,Activity,HL-60 [12],Dose-dependent effect
same,Activity,HL-60 [13],Dose-dependent effect
same,Activity,HL-60 [14],Dose-dependent effect
same,Activity,HL-60 [15],inactive
same,Activity,HL-60 [16],Active
same,Activity,[17],Active
same,Activity,[18],Active
same,pIC50,HL-60 [19],5.43
same,Ratio IC50,HL-60 [20],10
same,viability at 2 µM,HL-60 [21],77.8%
same,Activity,HL-60 [22],Active
same,Activity,HL-60 [23],inactive
same,Activity,[24],Active
same,Activity,HL-60 [25],inactive
same,Activity,HL-60 [26],Active
same,Activity,HL-60 [27],Active
same,GI50,[28],1120 nM
same,GI50,[29],2950 nM
same,GI50,[30],191 nM
